From patent US10800792B2, “Inhibitors of Bruton's tyrosine kinase and method of their use” (JANSSEN PHARMACEUTICA NV, priority 2015, dated 2020)

The compounds below were run against unphosphorylated-BTK kinase domain (UP-BTK), GST-tagged human BTK (389-659aa) (Homo sapiens (Human), UniProt Q06187) (assay: BTK kinase Lanthascreen binding assay). Details: Lanthascreen tracer competition, 60 minutes incubation; pIC50 = negative log of the IC50 in molar.
Summary of the method: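 A fluorescent tracer is bound to unphosphorylated BTK; test compound is added to compete it off; the Lanthascreen signal is read and IC50 is fitted, then reported as its negative log in molar.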

Chain of unphosphorylated-BTK kinase domain (UP-BTK), GST-tagged human BTK (389-659aa) (Q06187 389-659): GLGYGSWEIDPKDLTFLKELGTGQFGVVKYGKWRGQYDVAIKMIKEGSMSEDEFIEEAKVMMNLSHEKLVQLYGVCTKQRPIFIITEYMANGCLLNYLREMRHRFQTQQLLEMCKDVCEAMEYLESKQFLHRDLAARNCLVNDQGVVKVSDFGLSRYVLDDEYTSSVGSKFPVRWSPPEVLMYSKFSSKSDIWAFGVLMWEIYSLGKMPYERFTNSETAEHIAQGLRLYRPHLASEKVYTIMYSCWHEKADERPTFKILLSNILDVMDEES

Row | SMILES | BTK_I_binding pIC50
1 | C=CC(=O)N1CCC[C@@H](NC(=O)c2sc3nccc4c3c2NC(=O)N4c2ccc(Oc3ccccc3)c(Cl)c2)C1 [Example 686, (R)—N-(1-Acryloylpiperidin-3-yl)-5-(3-chloro-4-phenoxyphenyl)-4-oxo-4,5-dihydro-3H-1-thia-3,5,8-triazaacenaphthylene-2-carboxamide] | 7.6
2 | Cc1cc(Oc2ccccc2)ccc1N1C(=O)Nc2c(C(=O)NC3CCCNC3)sc3nccc1c23 (centres unmarked) [Example 889, 5-(2-methyl-4-phenoxyphenyl)-4-oxo-N-(piperidin-3-yl)-4,5-dihydro-3H-1-thia-3,5,8-triazaacenaphthylene-2-carboxamide] | 7.0

Second part, the compound after the results:

Row | BTK_I_binding pIC50 | SMILES
3 | <5 | CC(C)(C)OC(=O)N1CCC[C@@H](NC(=O)c2sc3nccc4c3c2NC(=O)N4c2ccc3c(c2)OC(F)(F)O3)C1 [Example 653, (R)-tert-Butyl 3-(5-(2,2-difluorobenzo[d][1,3]dioxol-5-yl)-4-oxo-4,5-dihydro-3H-1-thia-3,5,8-triazaacenaphthylene-2-carboxamido)piperidine-1-carboxylate]
4 | 5.1 | CC(=O)c1cccc(N2C(=O)Nc3c(C(=O)N[C@@H]4CCCNC4)sc4nccc2c34)c1 [Example 643, (R)-5-(3-Acetylphenyl)-4-oxo-N-(piperidin-3-yl)-4,5-dihydro-3H-1-thia-3,5,8-triazaacenaphthylene-2-carboxamide]
5 | 7.5 | C=CC(=O)N1CCC[C@@H](NC(=O)c2sc3nccc4c3c2NC(=O)N4c2cc(-c3ccccc3)ccc2C)C1 [Example 688, (R)—N-(1-Acryloylpiperidin-3-yl)-5-(4-methyl-[1,1′-biphenyl]-3-yl)-4-oxo-4,5-dihydro-3H-1-thia-3,5,8-triazaacenaphthylene-2-carboxamide]

Same assay, conditions: pIC50 = negative log of the IC50 in molar; 60 minutes incubation, 50 nM Tracer 236

Row | SMILES | BTK_I_binding pIC50
6 | Cc1cc(Oc2ccccc2OC(F)(F)F)ccc1N1C(=O)Nc2c(C(=O)N[C@@H]3CCCN(C)C3)sc3nccc1c23 [Example 227, (R)-5-(2-Methyl-4-(2-(trifluoromethoxy)phenoxy)phenyl)-N-(1-methylpiperidin-3-yl)-4-oxo-4,5-dihydro-3H-1-thia-3,5,8-triazaacenaphthylene-2-carboxamide] | 6.5
7 | COCC(C)(C)C(=O)N1CCC[C@@H](NC(=O)c2sc3nccc4c3c2NC(=O)N4c2ccc(Oc3ccccc3)cc2C)C1 [Example 188, (R)—N-(1-(3-Methoxy-2,2-dimethylpropanol)piperidin-3-yl)-5-(2-methyl-4-phenoxyphenyl)-4-oxo-4,5-dihydro-3H-1-thia-3,5,8-triazaacenaphthylene-2-carboxamide] | 6.7
8 | Cc1cc(Oc2ccccc2)ccc1N1C(=O)Nc2c(C(=O)NC3CC4CCN3CC4)sc3nccc1c23 (centres unmarked) [Example 171, 5-(2-Methyl-4-phenoxyphenyl)-4-oxo-N-(quinuclidin-2-yl)-4,5-dihydro-3H-1-thia-3,5,8-triazaacenaphthylene-2-carboxamide] | 7.0

Second part, the compound after the results:

Row | BTK_I_binding pIC50 | SMILES
9 | 7.2 | COCCNC(C)(C)C=C(C#N)C(=O)N1CCC[C@@H](NC(=O)c2sc3nccc4c3c2NC(=O)N4c2ccc(Oc3ccccc3)cc2C)C1 (mixture of isomers) [Example 234, (R,EZ)—N-(1-(2-Cyano-4-((2-methoxyethyl)amino)-4-methylpent-2-enoyl)piperidin-3-yl)-5-(2-methyl-4-phenoxyphenyl)-4-oxo-4,5-dihydro-3H-1-thia-3,5,8-triazaacenaphthylene-2-carboxamide]
10 | 7.0 | COC[C@@H](OC)C(=O)N1CCC[C@@H](NC(=O)c2sc3nccc4c3c2NC(=O)N4c2ccc(Oc3ccccc3)cc2C)C1 [Example 190, N—((R)-1-((R)-2,3-Dimethoxypropanoyl)piperidin-3-yl)-5-(2-methyl-4-phenoxyphenyl)-4-oxo-4,5-dihydro-3H-1-thia-3,5,8-triazaacenaphthylene-2-carboxamide]
11 | 7.2 | Cc1cc(Oc2ccccc2)ccc1N1C(=O)Nc2c(C(=O)N[C@@H]3CCCN(C(=O)[C@H]4CCN(C)C4)C3)sc3nccc1c23 [Example 125, 5-(2-Methyl-4-phenoxyphenyl)-N—((R)-1-((S)-1-methylpyrrolidine-3-carbonyl)piperidin-3-yl)-4-oxo-4,5-dihydro-3H-1-thia-3,5,8-triazaacenaphthylene-2-carboxamide]

Same assay, conditions: unphosphorylated-BTK kinase domain, 50 nM Tracer 236, 60 minutes; pIC50 = negative log of the IC50 in molar

Row | SMILES | BTK_I_binding pIC50
12 | O=C(N[C@@H]1CCCNC1)c1sc2nccc3c2c1NC(=O)N3c1ccc(Oc2ccccc2)c(Cl)c1 [Example 581, (R)-5-(3-Chloro-4-phenoxyphenyl)-4-oxo-N-(piperidin-3-yl)-4,5-dihydro-3H-1-thia-3,5,8-triazaacenaphthylene-2-carboxamide] | 6.8
13 | Cc1cc(Oc2ccccc2)ccc1N1C(=O)Nc2c(C(=O)NC[C@@H]3CCCCN3)sc3nccc1c23 [Example 310, (S)-5-(2-Methyl-4-phenoxyphenyl)-4-oxo-N-(piperidin-2-ylmethyl)-4,5-dihydro-3H-1-thia-3,5,8-triazaacenaphthylene-2-carboxamide] | 6.0
14 | C=CC(=O)N1CCC[C@@H](NC(=O)c2sc3nccc4c3c2NC(=O)N4c2ccc(Cc3ccccc3)cc2)C1 [Example 422, (R)—N-(1-Acryloylpiperidin-3-yl)-5-(4-benzylphenyl)-4-oxo-4,5-dihydro-3H-1-thia-3,5,8-triazaacenaphthylene-2-carboxamide] | 7.5
15 | CO[C@@H]1CNC[C@H](NC(=O)c2sc3nccc4c3c2NC(=O)N4c2ccc(Oc3ccccc3)cc2C)C1 (relative stereo) [Example 468, N-((3R,5S)-5-Methoxypiperidin-3-yl)-5-(*R)-(2-methyl-4-phenoxyphenyl)-4-oxo-4,5-dihydro-3H-1-thia-3,5,8-triazaacenaphthylene-2-carboxamide] | 5.9
16 | COC[C@@H](C)C(=O)N1CCC[C@@H](NC(=O)c2sc3nccc4c3c2NC(=O)N4c2ccc(Oc3ccccc3)cc2C)C1 [Example 571, N—((R)-1-((R)-3-Methoxy-2-methylpropanoyl)piperidin-3-yl)-5-(2-methyl-4-phenoxyphenyl)-4-oxo-4,5-dihydro-3H-1-thia-3,5,8-triazaacenaphthylene-2-carboxamide] | 7.0

Same assay, conditions: unphosphorylated-BTK kinase domain, 50 nM Tracer 236, 60 minutes; pIC50 = negative log of the IC50 in molar; read-out: BTK_I_binding pIC50 (converted)

Row | SMILES | IC50 [µM]
17 | Cc1cc(OC(F)(F)F)ccc1N1C(=O)Nc2c(C(=O)N[C@@H]3CCCNC3)sc3nccc1c23 [Example 413, (R)-5-(2-Methyl-4-(trifluoromethoxy)phenyl)-4-oxo-N-(piperidin-3-yl)-4,5-dihydro-3H-1-thia-3,5,8-triazaacenaphthylene-2-carboxamide] | 2.51

Same assay, conditions: unphosphorylated-BTK kinase domain, 60 minutes incubation, 50 nM Tracer 236; pIC50 = negative log of the IC50 in molar

Row | SMILES | BTK_I_binding pIC50
18 | Cc1cc(N2C(=O)Nc3c(C(=O)N[C@@H]4CCCNC4)sc4nccc2c34)ccc1OC(C)C [Example 955, (R)-5-(4-Isopropoxy-3-methylphenyl)-4-oxo-N-(piperidin-3-yl)-4,5-dihydro-3H-1-thia-3,5,8-triazaacenaphthylene-2-carboxamide] | <5
19 | O=C(N[C@H]1CCN(Cc2ccccc2)C1)c1sc2nccc3c2c1NC(=O)N3c1ccc(Oc2ccccc2)cc1 [Example 945, (S)—N-(1-Benzylpyrrolidin-3-yl)-4-oxo-5-(4-phenoxyphenyl)-4,5-dihydro-3H-1-thia-3,5,8-triazaacenaphthylene-2-carboxamide] | 5.5
20 | O=C(N[C@@H]1CCCNC1)c1sc2nccc3c2c1NC(=O)N3c1ccc(Oc2ccccc2)cn1 [Example 915, (R)-4-Oxo-5-(5-phenoxypyridin-2-yl)-N-(piperidin-3-yl)-4,5-dihydro-3H-1-thia-3,5,8-triazaacenaphthylene-2-carboxamide] | 6.5
